Source: patent US4867973A, “Antibody-therapeutic agent conjugates” (Cytogen Corporation, priority 1984, dated 1989)
Ends that are not written are not given here. Peptide text beside a SMILES is read from it. * marks the point of attachment. AMC = Cc1cc(=O)oc2cc(N*)ccc12; Boc = CC(C)(C)OC(=O)*

How the values were obtained:
Format in all cases: biochemical
urokinase [1] = molecular target: T1, urokinase (Homo sapiens, UniProt P00749); experiment: Fluorescence assay of AMC release from peptide linker by urokinase; details: urokinase 0.1 ug/ml; peptide 5 uM
Experimental: (§1) The rates of cleavage for the peptide linker were measured by fluorescence quenching using a Perkin Elmer 650-10S fluorescence spectrometer (Perkin-Elmer Corporation, Norwalk, Conn.). The excitation and emission wavelengths were 380 nm and 460 nm, respectively and the temperature was maintained at 25° C. with a Lauda k-2/R circulating water bath (Brinkmann Instruments, Westbury, N.Y.).
(§2) The initial concentrations of Gly-Gly-Arg-AMC were determined by optical density, Σ^1M325 =16,000. The solutions were adjusted to 1 uM concentrations. One ml of the 1 uM solution in PBS, pH 7.4 was placed in a cuvette. The appropriate amounts of enzyme (1 ug/ml trypsin or 10 ug/ml urokinase) was then added at room temperature with stirring using a motor-driven syringe and the reaction kinetics were followed for several minutes. The fluorescence intensity of a known concentration of free AMC was established and used as a baseline to determine the change in units per nM/minute of free AMC in this fluorescence assay system.
(§3) In another experiment, the Gly-Gly-Arg-AMC concentration was 100 uM and the trypsin used at 100 ug/ml. In another embodiment of the present invention, the Gly-Gly-Arg-AMC was conjugated to oxidized dextran which can serve as a spacer as described in Section 5.4.3 (10,000 molecular weight) (Pharmacia Fine Chemicals, Piscataway, N.J.) by the methods of the present invention using a molar ratio of Gly-Gly-Arg-AMC to dextran of 58:1. Dextran-Gly-Gly-Arg-AMC was separated with a 6.5 ml Sephadex® G-25 column (Pharmacia Fine Chemicals, Piscataway, N.J.).
(§4) Peptide sequences that are analogs of complement components were cleaved by trypsin (0.1 ug/ml), urokinase (0.1 ug/ml), plasmin (1 ug/ml) and purified complement components C4,2 and C1s (40 ug/ml). The data in Table V compare the cleavage rates (nM/minute) of these sequences. The fluorescence assay described in Section 8 for cleavage of Gly-Gly-Arg-AMC was used here. Complement components were purified and assayed by the method of Tack and Prahl (Biochem., 1976, 15:4513-4521).

trypsin [2] = experiment: Fluorescence assay of AMC release from peptide linker by trypsin; details: for Cleavage Rates, Trypsin: trypsin 0.1 ug/ml, peptide 5 uM
Experimental: as §1, §2, §3, §4

trypsin [3] = experiment: Release of 125I-Tyr from radiolabeled peptide by trypsin (agarose gel electrophoresis or TLC); details: trypsin 1 ug/ml; substrate 0.1 uM; 125I-Tyr release
Experimental: (§5) For the purposes of the present example, the tetrapeptide Glycine-Glycine-Arginine-Tyrosine was radiolabeled at the amino acid residue tyrosine with 125 Iodine (125 I) (Greenwood et al. 1963, Biochem. J. 88: 114-120). This radiolabeled compound is hereinafter referred to as Gly-Gly-Arg-Tyr* (wherein the * denotes ^125 I).
(§6) The peptide Gly-Gly-Arg-Tyr* was assayed for the release of the 125I labeled tyrosine residue by agarose gel electrophoresis or thin-layer chromatography (TLC, Sono and Asakura, 1974, Biochem 13:4386-4394). Briefly, appropriate amounts of enzyme were added to a reaction tube containing 0.1 uM Gly-Gly-Arg-Tyr in PBS, pH 7.4. The mixture was incubated at 37° C. for 30 minutes. Three ul of this reaction mixture were then applied to an agarose gel (1%) and run at high voltage (120 V/cm) in Barbitol Buffer, 0.025 M sodium diethylbarbituate HCl buffer, pH 8.6. Three ul of bromophenol blue solution was used as a marker to determine the end of the run. The agarose gel was then cut into sections and counted in a LKB 1271 gamma counter (LKB Instruments, Gaithersburg, Md.) to determine if the Tyr remained at the origin or migrated through the gel. Alternatively, samples were separated and identified by TLC as described supra. […] The plate was dried and divided into ten sections which were counted in a gamma counter. […]

urokinase [4] = molecular target: T1, urokinase; experiment: Release of 125I-Tyr from radiolabeled peptide by urokinase (agarose gel electrophoresis or TLC); details: urokinase 10 ug/ml; substrate 0.1 uM; 125I-Tyr release
Experimental: as §5, §6

plasmin = plasmin (Homo sapiens, UniProt P00747); experiment: Fluorescence assay of AMC release by plasmin; details: plasmin 1 ug/ml; peptide 5 uM
Experimental: as §4

[5] = molecular target: T2, purified complement component C1s (Homo sapiens, UniProt P09871); experiment: Fluorescence assay of AMC release by purified complement component C1s; details: 10 ug/ml enzyme; peptide 5 uM
T2 construct: from tissue
T2 sequence (P09871 16-688): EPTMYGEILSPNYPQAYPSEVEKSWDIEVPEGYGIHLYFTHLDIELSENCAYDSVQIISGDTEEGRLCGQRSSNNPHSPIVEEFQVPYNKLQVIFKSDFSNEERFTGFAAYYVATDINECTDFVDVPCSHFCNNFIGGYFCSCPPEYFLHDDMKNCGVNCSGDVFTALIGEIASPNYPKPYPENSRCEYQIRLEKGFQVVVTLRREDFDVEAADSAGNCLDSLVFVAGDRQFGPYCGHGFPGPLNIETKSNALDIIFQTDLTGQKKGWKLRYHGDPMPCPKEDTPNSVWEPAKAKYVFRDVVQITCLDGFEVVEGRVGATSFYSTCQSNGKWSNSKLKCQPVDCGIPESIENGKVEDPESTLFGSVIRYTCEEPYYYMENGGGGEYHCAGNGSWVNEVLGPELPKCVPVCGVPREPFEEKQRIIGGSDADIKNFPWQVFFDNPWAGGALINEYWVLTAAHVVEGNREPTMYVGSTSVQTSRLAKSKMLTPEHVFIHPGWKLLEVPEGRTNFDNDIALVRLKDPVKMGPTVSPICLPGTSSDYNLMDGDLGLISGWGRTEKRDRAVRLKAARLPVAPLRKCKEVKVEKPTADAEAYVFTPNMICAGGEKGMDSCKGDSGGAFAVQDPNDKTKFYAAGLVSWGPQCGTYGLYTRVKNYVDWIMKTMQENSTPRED
Description: The data in Table V compare the cleavage rates (nM/minute) of these sequences. The fluorescence assay described in Section 8 for cleavage of Gly-Gly-Arg-AMC was used here. Complement components were purified and assayed by the method of Tack and Prahl (Biochem., 1976, 15:4513-4521).

[6] = molecular target: T3, purified complement component C4,2 (Homo sapiens, UniProt P06681); experiment: Fluorescence assay of AMC release by purified complement component C4,2; details: 40 ug/ml enzyme; peptide 5 uM
T3 construct: from tissue
Experimental: as §4

Sequence of plasmin (P00747 581-810 limits assumed, species assumed): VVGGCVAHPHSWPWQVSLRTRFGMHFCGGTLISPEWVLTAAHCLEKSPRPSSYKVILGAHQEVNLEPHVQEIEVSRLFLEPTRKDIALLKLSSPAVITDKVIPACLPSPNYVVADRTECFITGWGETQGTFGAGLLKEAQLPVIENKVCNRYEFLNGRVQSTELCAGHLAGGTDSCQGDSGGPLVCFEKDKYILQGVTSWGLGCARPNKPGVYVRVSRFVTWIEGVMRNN
Sequence of plasmin (P00747 97-580 partner limits assumed, species assumed): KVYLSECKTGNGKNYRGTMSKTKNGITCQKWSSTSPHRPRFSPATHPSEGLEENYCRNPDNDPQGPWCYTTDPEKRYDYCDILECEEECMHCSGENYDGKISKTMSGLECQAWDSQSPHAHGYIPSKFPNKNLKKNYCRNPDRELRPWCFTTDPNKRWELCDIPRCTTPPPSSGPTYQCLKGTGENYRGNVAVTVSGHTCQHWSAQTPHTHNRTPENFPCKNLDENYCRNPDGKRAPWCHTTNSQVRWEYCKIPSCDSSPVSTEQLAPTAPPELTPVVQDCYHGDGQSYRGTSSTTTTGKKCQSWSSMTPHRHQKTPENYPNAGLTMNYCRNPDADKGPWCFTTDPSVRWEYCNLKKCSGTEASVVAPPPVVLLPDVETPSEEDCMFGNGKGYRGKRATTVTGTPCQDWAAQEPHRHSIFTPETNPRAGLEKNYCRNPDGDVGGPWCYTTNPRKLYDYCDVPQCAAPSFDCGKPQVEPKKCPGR
T3 sequence (P06681 244-752 limits assumed): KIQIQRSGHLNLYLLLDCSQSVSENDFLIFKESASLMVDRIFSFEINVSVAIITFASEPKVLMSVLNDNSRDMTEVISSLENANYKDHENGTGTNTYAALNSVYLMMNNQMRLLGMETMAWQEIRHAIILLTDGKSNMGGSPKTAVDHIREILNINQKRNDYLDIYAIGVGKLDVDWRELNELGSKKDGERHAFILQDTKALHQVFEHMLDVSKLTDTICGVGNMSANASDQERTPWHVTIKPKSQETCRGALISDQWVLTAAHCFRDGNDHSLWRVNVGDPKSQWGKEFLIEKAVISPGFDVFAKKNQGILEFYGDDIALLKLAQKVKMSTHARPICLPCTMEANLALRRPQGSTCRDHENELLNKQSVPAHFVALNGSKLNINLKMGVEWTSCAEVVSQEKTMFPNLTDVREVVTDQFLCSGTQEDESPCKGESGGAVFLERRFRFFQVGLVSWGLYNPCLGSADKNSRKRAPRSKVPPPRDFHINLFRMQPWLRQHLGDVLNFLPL
T3 sequence (P0C0L4 20-675 partner limits assumed): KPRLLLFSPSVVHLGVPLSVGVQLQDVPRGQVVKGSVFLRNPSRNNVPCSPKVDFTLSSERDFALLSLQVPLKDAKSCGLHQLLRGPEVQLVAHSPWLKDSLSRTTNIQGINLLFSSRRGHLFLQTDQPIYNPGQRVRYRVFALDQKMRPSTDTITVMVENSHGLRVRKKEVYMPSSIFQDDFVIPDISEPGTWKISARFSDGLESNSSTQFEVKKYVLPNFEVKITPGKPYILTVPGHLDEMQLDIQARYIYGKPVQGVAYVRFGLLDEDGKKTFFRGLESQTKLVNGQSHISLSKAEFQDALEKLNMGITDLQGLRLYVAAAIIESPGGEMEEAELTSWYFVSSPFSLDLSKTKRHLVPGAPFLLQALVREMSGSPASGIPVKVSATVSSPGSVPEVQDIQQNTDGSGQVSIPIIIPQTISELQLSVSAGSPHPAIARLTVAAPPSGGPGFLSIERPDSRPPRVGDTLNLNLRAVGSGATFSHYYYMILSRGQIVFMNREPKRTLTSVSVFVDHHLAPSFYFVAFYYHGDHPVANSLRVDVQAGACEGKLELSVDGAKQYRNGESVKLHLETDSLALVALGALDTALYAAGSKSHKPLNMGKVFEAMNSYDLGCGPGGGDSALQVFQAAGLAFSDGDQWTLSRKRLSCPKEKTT
T3 sequence (P0C0L4 757-1446 partner limits assumed): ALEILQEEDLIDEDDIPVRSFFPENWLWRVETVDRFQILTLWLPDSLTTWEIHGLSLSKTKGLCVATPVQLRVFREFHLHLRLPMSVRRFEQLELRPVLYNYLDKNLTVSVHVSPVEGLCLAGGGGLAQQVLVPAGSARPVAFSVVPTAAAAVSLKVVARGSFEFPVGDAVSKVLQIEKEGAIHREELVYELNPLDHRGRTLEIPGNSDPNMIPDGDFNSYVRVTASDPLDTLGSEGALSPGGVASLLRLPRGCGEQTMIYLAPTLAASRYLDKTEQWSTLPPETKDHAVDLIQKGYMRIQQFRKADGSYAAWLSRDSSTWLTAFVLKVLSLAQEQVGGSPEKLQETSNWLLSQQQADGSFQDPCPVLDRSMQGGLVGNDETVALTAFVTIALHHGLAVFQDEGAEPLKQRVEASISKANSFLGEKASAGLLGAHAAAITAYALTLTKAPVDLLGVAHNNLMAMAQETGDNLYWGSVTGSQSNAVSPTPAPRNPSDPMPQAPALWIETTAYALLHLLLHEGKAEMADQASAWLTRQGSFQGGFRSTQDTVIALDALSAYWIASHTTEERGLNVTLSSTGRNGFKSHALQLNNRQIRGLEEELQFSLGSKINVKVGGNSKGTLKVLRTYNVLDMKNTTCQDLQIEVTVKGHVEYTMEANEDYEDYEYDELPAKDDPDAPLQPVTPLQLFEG
T3 sequence (P0C0L4 1454-1744 partner limits assumed): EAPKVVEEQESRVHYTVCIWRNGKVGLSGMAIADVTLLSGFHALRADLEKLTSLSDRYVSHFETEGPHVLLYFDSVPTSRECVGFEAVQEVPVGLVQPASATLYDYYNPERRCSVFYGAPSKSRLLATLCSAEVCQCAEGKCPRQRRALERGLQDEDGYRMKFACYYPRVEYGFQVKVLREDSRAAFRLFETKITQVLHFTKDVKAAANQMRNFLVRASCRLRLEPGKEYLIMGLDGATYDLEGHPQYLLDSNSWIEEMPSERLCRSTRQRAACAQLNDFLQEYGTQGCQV

Row | Molecule | Cleavage Rates, Urokinase (urokinase [1]) [nM/min] | Cleavage Rates, Trypsin (trypsin [2]) [nM/min] | also measured
1 | Cc1cc(=O)oc2cc(NC(=O)[C@H](CCCCN)NC(=O)[C@H](CCCCN)NC(=O)[C@@H](N)CCC(=O)O)ccc12 [Glu-Lys-Lys-AMC] (H-Glu-Lys-Lys-{AMC}) | 0 | 0.62 | –
2 | Cc1cc(=O)oc2cc(NC(=O)[C@H](CCCNC(=N)N)NC(=O)[C@@H]3CCCN3C(=O)[C@@H](NC(=O)OC(C)(C)C)C(C)C)ccc12 [Boc-Val-Pro-Arg-AMC] (Boc-Val-Pro-Arg-{AMC}) | 0 | 3.8 | –
3 | Cc1cc(=O)oc2cc(NC(=O)[C@H](CCCNC(=N)N)NC(=O)[C@H](Cc3ccccc3)NC(=O)[C@@H]3CCCN3)ccc12 [Pro-Phe-Arg-AMC] (H-Pro-Phe-Arg-{AMC}) | 0 | 0 | –
4 | Cc1cc(=O)oc2cc(NC(=O)[C@H](CCCNC(=N)N)NC(=O)CNC(=O)[C@H](CC(C)C)NC(=O)OC(C)(C)C)ccc12 [Boc-Leu-Gly-Arg-AMC, Boc-leu-gly-arg-7-amino-4-methylcoumarin] (Boc-Leu-Gly-Arg-{AMC}) | 3.7 | 750 | –
5 | Glycine-Glycine-Arginine-Tyrosine [Gly--Gly--Arg--Tyr*] | – | – | Cleavage Rates Released Group, Trypsin (trypsin [3]): 4 nM/min; Cleavage Rates Released Group, Urokinase (urokinase [4]): .01 nM/min
6 | Cc1cc(=O)oc2cc(NC(=O)[C@H](CCCNC(=N)N)NC(=O)CNC(=O)[C@@H](NC(=O)OC(C)(C)C)C(C)C)ccc12 [Boc-Val-Gly-Arg-AMC] (Boc-Val-Gly-Arg-{AMC}) | 2.8 | 720 | –
7 | Cc1cc(=O)oc2cc(NC(=O)[C@H](CCCNC(=N)N)NC(=O)CNC(=O)CN)ccc12 [Gly--Gly--Arg--AMC, Gly-Gly-Arg-AMC] | 27 | 450 | Cleavage Rates, Plasmin (plasmin): 0.005 nM/min; Cleavage Rates Released Group, Trypsin (trypsin [2]; trypsin 100 ug/ml, substrate 100 uM): 20,000 nM/min.; Cleavage Rates, complement component (column head drawing 18) [5]: 0.9 to 1.2 nM/min; Cleavage Rates, complement component (column head drawing 17) [6]: 0.9 to 1.2 nM/min
8 | Cc1cc(=O)oc2cc(NC(=O)[C@H](CCCNC(=N)N)NC(=O)[C@H](CCCNC(=N)N)NC(=O)[C@H](CCC(=O)O)NC(=O)OC(C)(C)C)ccc12 [Boc-Glu-Arg-Arg-AMC] (Boc-Glu-Arg-Arg-{AMC}) | 0 | 3.7 | –
9 | PGRVVGY [Pro--Gly--Arg--Val--Val--Gly--Tyr*, plasminogen analog] | – | – | Cleavage Rates Released Group, Trypsin (trypsin [3]): 3 nM/min; Cleavage Rates Released Group, Urokinase (urokinase [4]): .01 nM/min
10 | Cc1cc(=O)oc2cc(NC(=O)[C@H](CCCNC(=N)N)NC(=O)CNC(=O)[C@@H](N)CCC(=O)O)ccc12 [Glu-Gly-Arg-AMC] (H-Glu-Gly-Arg-{AMC}) | 35 | 140 | –
11 | Cc1cc(=O)oc2cc(NC(=O)[C@H](CCCNC(=N)N)NC(=O)[C@H](CO)NC(=O)[C@H](Cc3ccccc3)NC(=O)OC(C)(C)C)ccc12 [Boc-Phe-Ser-Arg-AMC] (Boc-Phe-Ser-Arg-{AMC}) | 0.044 | 17 | –
